# Molecular target: T1, recombinant autotaxin (Homo sapiens, UniProt Q13822)
# T1 construct: made in house; host or cells: Hi5 insect cells (baculovirus)
# Test: Autotaxin test (enzyme test), Amplex Red fluorescence with LPC substrate
# Type: biochemical
# Settings: autotaxin inhibition (enzyme test); for remaining activity at 10 µM: 10 μM compound, read-out: % Control at 10 μM
# Description: Autotaxin Inhibition (Enzyme Test)
# Autotaxin Test (Enzyme Test)
# The autotaxin activity is measured indirectly using Amplex Red reagent. Amplex Red is measured here as fluorogenic indicator for the H2O2 formed. In detail, autotaxin converts the substrate lysophosphatidylcholine (LPC) into phosphocholine and lysophosphatidylic acid (LPA). After this reaction, the phosphocholine is reacted with alkaline phosphatase to give inorganic phosphate and choline. In the next step, choline is oxidised by choline oxidase to give betaine, with formation of H2O2. H2O2 reacts with Amplex Red reagent in the presence of peroxidase (horseradish peroxidase) in a 1:1 stoichiometry and forms the highly fluorescent resorufin. The fluorescence is measured in a reaction-dependent kinetic mode in order that fluorescent signals from possible other fluorescent substances which are not involved in the reaction can be corrected out.
# 3 μl of a standard solution or of the test substances (substances with the name A(n)) in individual concentrations dissolved in 20 mM Hepes pH 7.2 with a maximum of 11% of DMSO are pre-incubated together with 20 μl (19 ng) of highly purified recombinant autotaxin in test buffer in a black microtitre plate provided with 384 wells at 22° C. for 30 min. The reaction is then initiated by addition of 10 μl of L-α-lysophosphatidylcholine (LPC), where the final concentration of LPC is 75 μM. The mixture is incubated at 37° C. for 90 min. After the incubation, Amplex Red reagent, peroxidase (horseradish peroxidase) and choline oxidase is added, and the fluorescence is immediately measured at 612 nm with excitation of 485 nm in a “Tecan Ultra multimode” reader. The activity of autotaxin is calculated indirectly via detection of the H2O2 formed.
# • Microtitre plate: PS microplate, 384 wells, small volume, black Corning, Cat#3677 • Protein: recombinant autotaxin (Baculovirale Hi5 Expression) • Substrate: L-α-lysophosphatidylcholine (chicken egg)); Avanti Polar Lipids #830071 P • Standard: C14 LPA, Avanti Polar Lipids, Cat#857120P • Detection reagent: Amplex Red reagent; Invitrogen #A12222; 5 mg dissolved in 1.923 ml of DMSO peroxidase type VI-A (horseradish) from Sigma #P6782; 5 mg dissolved in 7.45 ml of test buffer, choline oxidase; Sigma # C5896; 50 U dissolved in 2.47 ml of test buffer • Detection reagent mix: 1:50 dilution of detection reagent in test buffer • Test buffer: 10 mM Tris HCl, Merck, Cat #1.08219, pH 8, 1 mM; CaCl2×2 H2O, Merck #1.02382
Compound,remaining activity at 10 µM [%],IC50 [nM]
"CC(C)(C)[C@H](NC1CCNCC1)C(=O)N1CCN2C(=O)c3cc(-c4ccc(Cl)cc4F)ccc3NC(=O)[C@H]2C1 [Compound 48, (R)-7-(4-Chloro-2-fluorophenyl)-2-[(S)-3,3-dimethyl-2-(piperidin-4-ylamino)butyryl]-1,3,4,11a-tetrahydro-2H,10H-2,4a,10-triazadibenzo[a,d]cycloheptene-5,11-dione]",2,100 to 1000
CN(C)CCN1C(=O)[C@H]2CN(C(=O)CC(C)(C)C)CCN2C(=O)c2cc(-c3ccc(Cl)cc3F)ccc21 [Compound A151],16,> 1000
"COc1ccc(-c2ccc3c(c2)C(=O)N2CCN(C(=O)c4cccc(F)c4)C[C@@H]2C(=O)N3)cc1 [Compound A11, (R)-2-(3-Fluorobenzoyl)-7-(4-methoxyphenyl)-1,3,4,11a-tetrahydro-2H,10H-2,4a,10-triaza-dibenzo[a,d]cycloheptene-5,11-dione]",69,–
O=C(O)CCC(=O)N1CCN2C(=O)c3cc(-c4ccc(Cl)cc4)ccc3NC(=O)[C@@H]2C1 [Compound B4],71,–
"CC(C)(C)CC(=O)N1CCN2C(=O)c3cc(-c4cc(F)c(F)cc4F)ccc3NC(=O)C2C1 (stereo not shown) [Compound A92, 2-(3,3-Dimethylbutyryl)-7-(2,4,5-trifluorophenyl)-1,3,4,11a-tetrahydro-2H,10H-2,4a,10-triaza-dibenzo[a,d]cycloheptene-5,11-dione]",1,> 1000
"O=C1Nc2ccc(-c3ccc(Cl)cc3)cc2C(=O)N2CCN(C(=O)[C@@H]3CCCCN3)CC12 (stereo partly drawn) [Compound A21, 7-(4-Chlorophenyl)-2-((S)-piperidine-2-carbonyl)-1,3,4,11a-tetrahydro-2H,10H-2,4a,10-triaza-dibenzo[a,d]cycloheptene-5,11-dione]",82,> 1000
"O=C1Nc2ccc(-c3ccccc3F)cc2C(=O)N2CCN(C(=O)[C@@H]3CSCN3)C[C@H]12 [Compound A10, (R)-7-(2-Fluorophenyl)-2-((R)-thiazolidine-4-carbonyl)-1,3,4,11a-tetrahydro-2H,10H-2,4a,10-triazadibenzo[a,d]cycloheptene-5,11-dione]",34,> 1000
O=C1Nc2ccc(-c3ccccc3F)cc2C(=O)N2CCN(C(=O)c3cccs3)C[C@H]12 [Compound B23],76,–
"CC(C)(C)CC(=O)N1CCN2C(=O)c3cc(-c4ccc(Cl)c(F)c4)ccc3NC(=O)C2C1 (stereo not shown) [Compound A94, 7-(4-Chloro-3-fluorophenyl)-2-(3,3-dimethylbutyryl)-1,3,4,11a-tetrahydro-2H,10H-2,4a,10-triaza-dibenzo[a,d]cycloheptene-5,11-dione]",-18,> 1000
"O=C1Nc2ccc(-c3ccccc3F)cc2C(=O)N2CCN(C(=O)CCc3ccccn3)CC12 (stereo not shown) [Compound A20, 7-(2-Fluorophenyl)-2-(3-pyridin-2-ylpropionyl)-1,3,4,11a-tetrahydro-2H,10H-2,4a,10-triaza-dibenzo[a,d]cycloheptene-5,11-dione]",63,> 1000
"O=C1Nc2ccc(-c3ccc(Cl)cc3)cc2C(=O)N2CCN(C(=O)[C@@H]3CCCN3)CC12 (stereo partly drawn) [Compound A114, 7-(4-Chlorophenyl)-2-((S)-pyrrolidine-2-carbonyl)-1,3,4,11a-tetrahydro-2H,10H-2,4a,10-triaza-dibenzo[a,d]cycloheptene-5,11-dione]",28,> 1000
O=C1Nc2ccc(-c3ccccc3F)cc2C(=O)N2CCN(C(=O)[C@@H](O)c3ccccc3)C[C@H]12 [Compound B3],47,–
"CC(C)(C)CC(=O)N1CCN2C(=O)c3cc(-c4cccc(F)c4F)ccc3NC(=O)C2C1 (stereo not shown) [Compound A88, 7-(2,3-Difluorophenyl)-2-(3,3-dimethylbutyryl)-1,3,4,11a-tetrahydro-2H,10H-2,4a,10-triaza-dibenzo[a,d]cycloheptene-5,11-dione]",-6,> 1000
O=C1Nc2ccc(-c3ccccc3)cc2C(=O)N2CCN(C(=O)c3cccs3)C[C@H]12 [Compound B15],79,–
"CC(C)(C)CC(=O)N1CCN2C(=O)c3cc(-c4ccc(Cl)nc4)ccc3NC(=O)C2C1 (stereo not shown) [Compound A128, 7-(6-Chloropyridin-3-yl)-2-(3,3-dimethylbutyryl)-1,3,4,11a-tetrahydro-2H,10H-2,4a,10-triaza-dibenzo[a,d]cycloheptene-5,11-dione]",42,> 1000
"CC(C)(C)CC(=O)N1CCN2C(=O)c3cc(-c4cc(F)ccc4F)ccc3NC(=O)C2C1 (stereo not shown) [Compound A89, 7-(2,5-Difluorophenyl)-2-(3,3-dimethylbutyryl)-1,3,4,11a-tetrahydro-2H,10H-2,4a,10-triaza-dibenzo[a,d]cycloheptene-5,11-dione]",4,> 1000
"CC(C)(C)[C@H](O)C(=O)N1CCN2Cc3cc(-c4ccc(Cl)cc4)ccc3NC(=O)C2C1 (stereo partly drawn) [Compound 57, 7-(4-Chlorophenyl)-2-((S)-2-hydroxy-3,3-dimethylbutyryl)-1,3,4,5,10,11a-hexahydro-1H-2,4a,10-triazadibenzo[a,d]cyclohepten-11-one]",40,> 1000
CC(C)(C)CC(=O)N1CCN2C(=O)c3cc(-c4ccc(Cl)cc4F)ccc3N(CCC3CCNCC3)C(=O)C2C1 (stereo not shown) [Compound A146],10,> 1000
"O=C1Nc2ccc(-c3ccc(Cl)cc3F)cc2C(=O)N2CCN(C(=O)[C@@H]3CCCN3C3CCOCC3)C[C@H]12 [Compound A120, (R)-7-(4-Chloro-2-fluorophenyl)-2-[(S)-1-(tetrahydro-pyran-4-yl)pyrrolidine-2-carbonyl]-1,3,4,11a-tetra-hydro-2H,10H-2,4a,10-triazadibenzo[a,d]-cycloheptene-5,11-dione]",8,100 to 1000
CS(=O)(=O)N1CCN2C(=O)c3cc(-c4ccccc4F)ccc3NC(=O)[C@H]2C1 [Compound B1],75,–
"O=C1Nc2ccc(-c3ccccc3F)cc2C(=O)N2CCN(C(=O)c3ccccn3)CC12 (stereo not shown) [Compound A15, 7-(2-Fluorophenyl)-2-(pyridine-2-carbonyl)-1,3,4,11a-tetrahydro-2H,10H-2,4a,10-triaza-dibenzo[a,d]cycloheptene-5,11-dione]",55,> 1000
CN(C)CCN1C(=O)[C@@H]2CN(C(=O)CC(C)(C)C)CCN2C(=O)c2cc(-c3ccc(Cl)cc3F)ccc21 [Compound A163],10,> 1000
"O=C1Nc2ccc(-c3ccc(Cl)cc3)cc2C(=O)N2CCN(C(=O)C3(c4ccccc4)CC3)CC12 (stereo not shown) [Compound A49, 7-(4-Chlorophenyl)-2-(1-phenylcyclopropane-carbonyl)-1,3,4,11a-tetrahydro-2H,10H-2,4a,10-triazadibenzo[a,d]cycloheptene-5,11-dione]",–,> 1000
"CC(C)(C)[C@H](N)C(=O)N1CCN2C(=O)c3cc(-c4ccc(Cl)cc4)ccc3NC(=O)[C@@H]2C1 [Compound A80, (S)-2-((S)-2-Amino-3,3-dimethylbutyryl)-7-(4-chloro-phenyl)-1,3,4,11a-tetrahydro-2H,10H-2,4a,10-triaza-dibenzo[a,d]cycloheptene-5,11-dione]",44,–
